Like-named read-outs stand apart in the source and are kept apart here.
Key:
L. major [1] = experiment: ChEMBL dataset of pIC50 values against L. major used for the RF model (Table S1); type: cell-based, Leishmania major; note: call rule not given here
From the text: From the ChEMBL database (https://www.ebi.ac.uk/chembl/, accessed on 10 January 2021), we selected a diverse set of 1085 structures that were initially classified according to their predicted activity against L. major.
Excluding these structures minimized the differences in activity values resulting from errors and differences in experimental protocols. […] Standardizer software [JChem, version 16.11.28 (2016), calculation module developed by ChemAxon, https://www.chemaxon.com/, accessed on 20 January 2021] was used to canonize all simplified molecular-input line-entry system (SMILES) codes. After duplicate structures were removed, those with higher pIC50 values were eliminated, facilitating the generation of more restrictive models.

L. major [2] = test system: L. major; parameters: method as in ChEMBL; conditions: ref ChEMBL, cited from earlier work
[3] = Active/Inactive class assigned to ChemBL structures for Random forest model construction (Table S1)
[4] = ChemBL structures with pIC50 values used for Random forest model construction (Table S1)
[5] = Active/Inactive class assigned to the ChEMBL pIC50 value for Random forest model construction, ref ChEMBL
[6] = ChemBL structures with pIC50 values used for Random forest model construction, L. major

Compound | Outcome (L. major [1]; [3]) | pIC50 Value (L. major [2]; [4]) | Outcome (L. major [1]; [5]) | pIC50 Value (L. major [2]; [6])
COc1cc(OC)c2c(C)[n+](-c3ccc(C(C)(C)C)cc3)c(C)cc2c1.F[B-](F)(F)F [CHEMBL516763] | Active | 5.57 |  | 
COc1ccccc1-c1nnc(-c2ccc(C(=O)N/N=C/c3ccc(O)c(O)c3)cc2)o1 [CHEMBL4092817] | Active | 6.02 |  | 
Clc1ccccc1-c1nc2ccccc2[nH]1 [CHEMBL473162] | Active | 5.47 |  | 
O=[N+]([O-])c1ccc(-c2nnc(N3CCNCC3)s2)o1 [CHEMBL195646] |  |  | Active | 5.05
CC(=O)C1=C(CNc2ccc(C(=O)/C=C/c3ccc(O)cc3)cc2)N(C)C(=O)NC1c1ccccc1 (stereo not shown) [CHEMBL3786140] | Active | 5.98 |  | 
O=[N+]([O-])c1ccc(-c2nnc(NCc3cn(Cc4ccc(Cl)cc4)nn3)s2)o1 [CHEMBL1951527] |  |  | Inactive | 4.05
Cc1ccc(Cn2cc(CNc3nnc(-c4ccc([N+](=O)[O-])o4)s3)nn2)cc1 [CHEMBL1951530] |  |  | Inactive | 4.91
COc1cccc2c1C(=O)C=C(C)C2=O [CHEMBL1531003] | Active | 5.48 |  | 
COc1cc(C(=O)/C=C/C2=Cc3cc(Cl)ccc3OC2)cc(OC)c1OC [CHEMBL1094315] | Active | 5.69 |  | 
Cl.N=C(c1ccc(N2CCN(c3nnc(-c4ccc([N+](=O)[O-])o4)s3)CC2)cc1)N1CCOCC1 [CHEMBL1783209] |  |  | Inactive | 4.03
Cc1ccc2cc(/C=C/C(=O)c3ccc(Br)s3)c(Cl)nc2c1 [CHEMBL1940859] | Active | 5.64 |  | 
CC(=O)N1c2ccccc2Oc2ccccc21 [CHEMBL2180182] |  |  | Inactive | 4.00
C[C@]12CC[C@H](O)C[C@@H]1CC[C@@H]1[C@@H]2CC[C@@]2(C)[C@H]1CC[C@@H]2[C@@](C)(O)c1ccncc1Cl [CHEMBL1214242] |  |  | Active | 5.10
CC1=C(C(=O)OC(C)C)C(c2cccc([N+](=O)[O-])c2)C(C(=O)OC2CN(C(c3ccccc3)c3ccccc3)C2)=C(N)N1 (stereo not shown) [CHEMBL1275868] |  |  | Inactive | 4.77
CCCC/C=C/C=C/c1nc2cc(OC)ccc2n2cccc12 [CHEMBL3260215] | Active | 5.60 |  | 
O=C(CCCl)N1c2ccccc2Oc2ccc(Cl)cc21 [CHEMBL3759105] |  |  | Inactive | 4.80
Cc1cccc2cc(/C=C/C(=O)c3ccc(I)s3)c(Cl)nc12 [CHEMBL1940871] | Active | 5.82 |  | 
O=C(/C=C/c1ccc(-n2ccnc2)cc1)c1ccc(I)cc1 [CHEMBL570445] | Active | 5.64 |  | 
Nc1ccc(Nc2c3ccccc3nc3ccccc23)cn1 [CHEMBL84678] | Active | 5.41 |  | 
O=C(/C=C/c1ccc(-n2ccnc2)cc1)c1ccccc1 [CHEMBL571178] | Active | 5.48 |  | 
CCC/C=C/C=C/c1nc2ccc(OC)cc2n2cccc12 [CHEMBL3260212] |  |  | Active | 5.13
COc1ccccc1-c1nnc(-c2ccc(C(=O)N/N=C/c3ccc(F)cc3)cc2)o1 [CHEMBL4099059] |  |  | Inactive | 4.85
C/C=C/C=C/c1nc2cc(OC)ccc2n2cccc12 [CHEMBL3260207] | Active | 5.52 |  | 
CCCN1CN(CC(=O)OC)CSC1=S [CHEMBL4294585] |  |  | Inactive | 3.69

Compound | Outcome (L. major [1]; [3]) | pIC50 Value (L. major [2]; [4]) | Outcome (L. major [1]; [5]) | pIC50 Value (L. major [2]; [6])
C=C1CCC[C@@]2(C)CC3=C(C[C@@H]12)C(=O)C=CC3=O [CHEMBL401659] |  |  | Inactive | 4.99
COc1ccc(-c2ccc(C)cc2)c2c1C(C)=N[C@H](C)C2 [CHEMBL1278083] |  |  | Inactive | 4.08
Cc1csc(C2=NNC(c3cc4cccc(C)c4nc3Cl)C2)c1 (stereo not shown) [CHEMBL2235719] | Active | 5.66 |  | 
Cc1ccc2cc(C3CC(c4ccsc4)=NN3)c(Cl)nc2c1 (stereo not shown) [CHEMBL2236135] | Active | 5.54 |  | 
COc1cc(OC)c2c(C)[n+](-c3c(C)cc(C)cc3C)c(C)cc2c1.F[B-](F)(F)F [CHEMBL480824] | Active | 5.83 |  | 
COCCOC(=O)C1=C(C)NC(C)=C(C(=O)OC/C=C/c2ccccc2)C1c1cccc([N+](=O)[O-])c1 (stereo not shown) [CHEMBL452076] |  |  | Inactive | 4.67
Cl.O=[N+]([O-])c1ccc(-c2nnc(N3CCN(c4ccc(C5=NCCN5)cc4)CC3)s2)o1 [CHEMBL1783210] |  |  | Inactive | 3.70
COc1cc(OC)c2c(C)[n+](-c3ccc(C)cc3)c(C)cc2c1 [CHEMBL520612] | Active | 5.58 |  | 
COc1ccccc1-c1nnc(-c2ccc(C(=O)N/N=C/c3cccc(Cl)c3)cc2)o1 [CHEMBL4096109] |  |  | Inactive | 4.68
CCCCCCN(C)c1ccc(Nc2c3ccccc3nc3ccccc23)cc1 [CHEMBL415472] | Active | 6.52 |  | 
CC1=C(C(=O)Nc2ccc(C(=O)/C=C/c3ccc(O)cc3)cc2)C(c2ccc(C)cc2)NC(=S)N1 (stereo not shown) [CHEMBL3786661] | Active | 5.96 |  | 
Cn1c([N+](=O)[O-])cnc1-c1nnc(N2CCN(C(=O)c3ccc(Br)s3)CC2)s1 [CHEMBL520309] |  |  | Inactive | 4.80
COc1ccccc1C(=O)N/N=C/c1ccccn1 [CHEMBL2382029] |  |  | Inactive | 4.22
O=C(/C=C/c1ccc(-n2ccnc2)cc1)c1ccccc1Cl [CHEMBL569355] | Active | 5.52 |  | 
C/C(=N/NC(N)=S)c1ccc(OCc2cn(CC(=O)c3ccc(Br)cc3)nn2)cc1 [CHEMBL4166113] | Active | 6.00 |  | 
O=C(/C=C/c1ccc(-n2ccnc2)cc1)c1c(Cl)cccc1Cl [CHEMBL571070] | Active | 5.71 |  | 
COc1ccc(-c2ccc3cc(C)nc(C)c3c2O)c2cc(C)cc(OC)c12 [CHEMBL224952] |  |  | Inactive | 4.00
COc1ccccc1C(=O)N/N=C/c1cccs1 [CHEMBL2382043] | Active | 5.60 |  | 
O=[N+]([O-])c1ccc2ncnc(Nc3ccc(Br)cc3)c2c1 [CHEMBL3760107] |  |  | Inactive | 4.21
COc1ccc(O)c(/C=N/NC(=O)c2ccc(-c3nnc(-c4ccccc4OC)o3)cc2)c1 [CHEMBL4082571] |  |  | Inactive | 4.79
Cc1cccc2cc(/C=C/C(=O)c3cc(Cl)sc3Cl)c(Cl)nc12 [CHEMBL1940868] | Active | 5.65 |  | 
COc1ccc(/C=C/C(=O)c2ccccc2)c(OC)c1 [CHEMBL144626] | Active | 5.40 |  | 
CC1=N[C@H](C)Cc2c(-c3cccc4ccccc34)ccc(O)c21 [CHEMBL1276916] |  |  | Inactive | 4.87
